Reference: the NIST ThermoML archive (doi:10.1016/j.fluid.2006.08.018)
Numbers after ± are expanded uncertainties.

Tests used:
[1] = Liquid; for mass density: 101.33 kPa
[2] = refractive index (Na D-line) (dimensionless); conditions: 101.33 kPa, Liquid, Standard Abbe refractometry

| Structure (SMILES) | mass density ([1]; 298.15 K) [kg/m3] | refractive index ([2]; 298.15 K) | mass density ([1]; 293.15 K) [kg/m3] | refractive index ([2]; 293.15 K) | other results |
| --- | --- | --- | --- | --- | --- |
| ClC(Cl)C(Cl)Cl [1,1,2,2-tetrachloroethane] |  |  | 1594.5 ± 5.1 | 1.494 ± 0.0008 | vapor or sublimation pressure ([1]; 417.25 K): 95.5 ± 4 kPa |
| ClCCCl [1,2-dichloroethane] |  |  | 1252.1 ± 3.8 | 1.4448 ± 0.0008 | vapor or sublimation pressure ([1]; 355.15 K): 95.5 ± 4 kPa |
| CC(C)CO [2-methyl-1-propanol] | 797.8 ± 2.1 | 1.3939 ± 0.0008 |  |  | vapor or sublimation pressure ([1]; 379.76 K): 95.5 ± 5 kPa |
| CCO [ethanol] | 784.9 ± 2.1 | 1.3591 ± 0.0008 |  |  | vapor or sublimation pressure ([1]; 349.95 K): 95.5 ± 4 kPa |
| ClC(Cl)=C(Cl)Cl [tetrachloroethene] |  |  | 1622.8 ± 5.3 | 1.5058 ± 0.0008 | vapor or sublimation pressure ([1]; 392.15 K): 95.5 ± 4 kPa |
| ClC=C(Cl)Cl [trichloroethene] |  |  | 1464 ± 4.6 | 1.4782 ± 0.0008 | vapor or sublimation pressure ([1]; 357.85 K): 95.5 ± 4 kPa |

Second part, led by results:

| mass density ([1]; 298.15 K) [kg/m3] | refractive index ([2]; 298.15 K) | Structure (SMILES) | mass density ([1]; 293.15 K) [kg/m3] | refractive index ([2]; 293.15 K) | other results |
| --- | --- | --- | --- | --- | --- |
| 781.2 ± 2.1 | 1.3852 ± 0.0008 | CC(C)(C)O [2-methylpropan-2-ol] |  |  | vapor or sublimation pressure ([1]; 354.15 K): 95.5 ± 4 kPa |
| 802.4 ± 2.2 | 1.3953 ± 0.0008 | CCC(C)O (configuration not stated) [butan-2-ol] |  |  | vapor or sublimation pressure ([1]; 371.25 K): 95.5 ± 4 kPa |
| 943.9 ± 2.5 | 1.4282 ± 0.0007 | CN(C)C=O [dimethylformamide] |  |  | vapor or sublimation pressure ([1]; 421.15 K): 95.5 ± 4 kPa |
